In patent US6107469A, “Minimum recognition unit of a pem mucin tandem repeat specific monoclonal antibody” (Cancer Therapeutics Limited, priority 1991, dated 2000):
“Also recorded” adds a separate entry of the source.

Test system: immobilised mucin receptor peptide (YVTSAPDTRPAPGST, the epitope sequence from the mucin molecule)
Experiment: Equilibrium dialysis binding of I125-labelled EPPT peptides to immobilised mucin receptor peptide
Settings: 24-48 hours at room temperature, FIGS. 2 and 3
Method: Preparation of immobilised mucin receptor peptide. 7.5 mg of YVTSAPDTRPAPGST (SEQ ID No 18) (the epitope sequence from the mucin molecule) was dissolved in 100 mM sodium phosphate buffer pH8. This was mixed with 7.5 mg of bovine serum albumin (BSA) and made up to 0.5 ml with buffer. 5 μl of 25% glutaraldehye was added, mixed and left to stand at room temperature for 15 minutes. A further 2.5 μl of glutaraldehyde was then added and the mixture left for a further 15 minutes.
Following the incubation, 100 μl of 1M glycine pH6 was added and left for 10 minutes to quench the glutaraldehyde. The reaction mixture was then aliquoted into 100 μl portions and stored at -20° C. until use.
Radiolabelling of EPPT peptides prior to binding assays. Peptides were dissolved in phosphate buffered saline, 100 mM sodium phosphate pH8, or 5% DMSO in sodium phosphate. […] 1 ml fractions were collected from the eluate and assayed for radioactivity.
Binding of EPPT peptides to immobilised mucin receptor peptide. […] Samples are removed from both sides of the membrane and assayed for the presence of radioactivity. […] Following incubation and equilibration, samples were removed from the dialysis module and counted for the presence of I^125. The radioactivity was then converted to amount of peptide for the purposes of determining the amount bound to the immobilised receptor peptide.

H-EPPTRTFAY-OH [EPPTRTFAY, NH2-EPPTRTFAY-COOH]
binding to the mucin receptor peptide: no real binding; also recorded: does not itself appear to bind
